Source: patent publication US20190282563A1, “Selective c-FLIP Inhibitors as Anticancer Agents” (Centre National de la Recherche Scientifique, priority 2016, published 2019)
Entries after “also recorded” stand apart in the source; their conditions may differ.

B1: TRAIL: death ligand TRAIL; KillerTRAIL (human recombinant BULK) purchased from Alexis Biochemicals (protein, UniProt P50591 39-281, looked up)
extracellular domain: TNELKQMQDKYSKSGIACFLKEDDSYWDPNDEESMNSPCWQVKWQLRQLVRKMILRTSEETISTVQEKQQNISPLVRERGPQRVAAHITGTRGRSNTLSSPNSKNEKALGRKINSWESSRSGHSFLSNLHLRNGELVIHEKGFYYIYSQTYFRFQEEIKENTKNDKQMVQYIYKYTSYPDPILLMKSARNSCWSKDAEYGLYSIYQGGIFELKENDRIFVSVTNEHLIDMDHEASFFGAFLVG
modifications: extracellular domain KillerTRAIL recombinant, Alexis
notes: death ligand TRAIL; KillerTRAIL (human recombinant BULK) purchased from Alexis Biochemicals

Assays:
H1703-FLIP(L) cells [1] = test: Annexin V-PE flow cytometry apoptosis test, H1703-FLIP(L) cells (TRAIL alone, molecule alone or combination); assay type: cell-based, Human; settings: 18 hours; for sensitization to TRAIL-induced apoptosis (percentage of apoptosis, annexin V): molecule at its most suitable concentration combined with TRAIL 100 ng/mL
Description: (§1) Cell Culture. H1703 (Human non-small lung cancer cell line) cells were grown in RPMI 1640 (LONZA) culture media supplemented with 10% fetal bovine serum and puromycine antibiotic (2 μg/ml) from Sigma-Aldrich. The cells were kept in a humidified atmosphere in an incubator at 37° C. and 5% CO2. H1703 cells were a kind gift from O. Micheau (INSERM, Dijon, France).
(§2) Flow Cytometry Analysis. The apoptotic cell death was confirmed by flow cytometry (cytoFLEX, Backman Coulter). After treatment of cells with TRAIL alone, c-FLIP inhibitor alone, or co-admninistration TRAIL/c-FLIP inhibitor, the cells were collected, washed and re-suspended in 1× Annexin binding buffer. Annexin-V-PE was added to cells, and left 20 minutes at room temperature in the dark. Flow cytometric analysis was carried out in the final step.
(§3) Sensitivity of the H1703 cells to TRAIL: The first goal was to verify that the H1703 cells are sensitive to TRAIL. To do so, the cells were treated with TRAIL at a concentration of 100 ng/mL for 18 hours and then the cells were washed and incubated with Annexin V-PE to evaluate the apoptosis level using flow cytometry. […] So, the Inventors applied a range of concentrations for each molecule to determine the appropriate dose that has no toxic effect on the cells when administered alone.
Combination Treatment of TRAIL with each one of the 9 Identified Molecules: Following the identification of the best concentration for each compound, HE1703 cells were treated with TRAIL (100 ng/mL) alone or with one of the 9 identified molecules alone or with a combination of TRAIL and one of the 9 identified molecules for 18 hours. The percentage of apoptosis was measured by flow cytometry using an annexin V test, as described above. The results obtained are presented on FIGS. 2(A, B and C).

cFLIP/FADD interaction = molecular target: T1, cFLIP/FADD interaction (Homo sapiens, UniProt O15519); test: Pull down assay of FADD/c-FLIP interaction (MBP-trap column, Western blot); assay type: binding; settings: c-FLIP(s) and FADD incubated 18 hours with molecule at different concentrations
T1 construct: made in house; host or cells: E. coli: Rosetta (pET24b, c-FLIP(s)) and DH5α (pMALC2, FADD)
Description: Transformation of Competent Bacteria. FLIP (s) and FADD genes were previously cloned and inserted in their respective plasmids pET24b and pMALC2, and provided as a kind gift from Pr. Richard Daniellou (ICOA, Orléans, France). Pet24b and Pmalc2 plasmids were mixed with their corresponding competent bacterial cells, Rosetta and DH5α cells respectively, and left on ice for 20 minutes. Heat-shocking steps were performed before adding LB medium and leaving cells to grow on 37° C. for 1 hour and then cells were spread on LB plates with appropriate antibiotics and incubated at 37° C. overnight.
Production of c-FLIP (s) and FADD proteins. Transformed competent cells were cultured in large amounts of LB growth at 37° C. and the expression of each protein was stimulated using 1M IPTG (Isopropyl β-D-1-thiogalactopyranoside) and cells were left to grow for 18 hours at 30° C. Cells were collected, centrifuged and resuspended in Tris/NaCl buffer (Tris 50 mM, NaCl 100 mM, pH 8.0) after which they were centrifuged at 6000 g, for 10 minutes at 4° C. Supernatant was removed and bacterial pellets were used for cell lysis and protein purification on Ni-NTA column and MBP-trap column for cFLIP(s) and FADD purification, respectively. The FLIP(s) is a His-tagged protein, and FADD is a MBP-tagged protein. The purified proteins were incubated with each molecule for 18 hours at +4° C. and then, the samples were passed again on MBP-trap columns.
Western Blot Analysis. The samples, purified and obtained after FADD/FLIP/compounds incubation, were run on 4-12% Bis-Tris polyacrylamide gels to evaluate the presence of FLIP and FADD bands.
Once purified, c-FLIP(s) and FADD were incubated for 18 hours with each one of the nine c-FLIP inhibitors at different concentrations. The samples were then passed on a MBP-trap column, which binds FADD (MBP-tagged protein). If cFLIP is still bound to FADD, then it is captured with FADD on the MBP column. Samples were then evaluated using a Western blot analysis by monitoring the disappearance of the c-FLIP band with increasing concentration of the c-FLIP inhibitor. Disappearance of the c-FLIP band in Western Blot corresponds to FADD-c-FLIP interaction inhibition.

H1703-Mock cells [2] = test: Cleavage of caspase-8, caspase-3 and PARP in H1703-mock cells; assay type: cell-based, Human
Excerpt: (§4) Reactivation of the Apoptotic Pathway by c-FLIP inhibitors combined with TRAIL: Cleavage of caspases is a marker of apoptosis pathway initiation. Thus, the present Inventors have studied the cleavage of caspase-8, of caspase-3 and of PARP (a caspase-3 substrate, which undergoes cleavage during apoptosis) in H1703-mock cells and in H1703-FLIP(L) cells, in the presence of TRAIL alone, in the presence of a c-FLIP inhibitor (molecules (1), (3), (4) and (9)), and of a combination of TRAIL and one of the c-FLIP inhibitors. The results obtained are presented on FIG. 4(A)-(B). […] However, no cleavage was observed when H1703-MOCK cells were treated with a c-FLIP inhibitor alone.

H1703-FLIP(L) cells [3] = test: Cleavage of caspase-8, caspase-3 and PARP in H1703-FLIP(L) cells; assay type: cell-based, Human; settings: H1703 cells overexpressing FLIP
Excerpt: as §4

H1703-Mock cells [4] = test: Annexin V-PE flow cytometry apoptosis test, H1703-Mock cells; assay type: cell-based, Human; settings: TRAIL 100 ng/mL, 18 hours
Description: as §1, §2, §3

[5] = TRAIL combined with c-FLIP inhibitor
[6] = combination of TRAIL and c-FLIP inhibitor

Molecule	sensitization to TRAIL-induced apoptosis (percentage of apoptosis, annexin V) (H1703-FLIP(L) cells [1])	inhibition of the interaction between FADD and c-FLIP (disappearance of the c-FLIP band) (cFLIP/FADD interaction)	cleavage of caspase-8, caspase-3 and PARP (H1703-Mock cells [2]; [5])	cleavage of caspase-8, caspase-3 and PARP (H1703-Mock cells [2]; c-FLIP inhibitor alone)	cleavage of caspase-8, caspase-3 and PARP (H1703-FLIP(L) cells [3]; c-FLIP inhibitor alone)	cleavage of caspase-8, caspase-3 and PARP (H1703-FLIP(L) cells [3]; [6])	level of apoptosis (H1703-Mock cells [4])	effect of TRAIL alone on apoptosis (H1703-FLIP(L) cells [1]; TRAIL 100 ng/mL, H1703-FLIP(L) cells overexpressing c-FLIP)	cleavage of caspase-8, caspase-3 and PARP (H1703-Mock cells [2]; TRAIL alone)	cleavage of caspase-8, caspase-3 and PARP (H1703-FLIP(L) cells [3]; TRAIL alone)
Cc1cccc(Nc2sc(C(=O)c3cc4cc(Cl)ccc4o3)c(N)c2C#N)c1 [Molecule (9)]	most active	inhibit the interaction between FADD and c-FLIP	cleavage of caspase-8, caspase-3 and PARP	no cleavage	no cleavage observed	induce cleavage of caspase-8, caspase-3 and PARP				
Cc1cc(/N=N/c2c(O)nc3ccccc3c2O)ccc1/N=N/c1ccc(C(=O)N(C)C)cc1 [Molecule (1)]	most active	inhibit the interaction between FADD and c-FLIP	cleavage of caspase-8, caspase-3 and PARP	no cleavage	no cleavage observed	induce cleavage of caspase-8, caspase-3 and PARP				
CC1=C(C)Cc2c(OC(=O)c3ccccc3)ccc(OC(=O)c3ccccc3)c2C1 [Molecule (7)]		inhibit the interaction between FADD and c-FLIP								
N#Cc1cc(-c2ccccc2)[nH]c1-c1nccc2ccccc12 [Molecule (3)]	most active	inhibit the interaction between FADD and c-FLIP	cleavage of caspase-8, caspase-3 and PARP	no cleavage	no cleavage observed	induce cleavage of caspase-8, caspase-3 and PARP				
Cc1c2cnccc2c(C)c2c1c1ccccc1n2CCOC(=O)c1ccccc1 [Molecule (4)]	most active	inhibit the interaction between FADD and c-FLIP	cleavage of caspase-8, caspase-3 and PARP	no cleavage	no cleavage observed	induce cleavage of caspase-8, caspase-3 and PARP				
NS(=O)(=O)c1ccc(NC(=S)NC(=O)c2ccco2)cc1 [Molecule (6)]		no effect								
B1							more than 60%	resistant to TRAIL; also recorded: no effect	cleavage of caspase-8, caspase-3 and PARP	no cleavage observed
